Where two headings read alike, the source gives them in different places. Marks after values point to notes of the source that are not given here.
Tests used:
[1] = target: T1, MtInhA:NADH binary complex (Mycobacterium tuberculosis, UniProt P9WGR1); experiment: biochemical; format: binding; conditions: for Kd: 25 °C (298.15 K); for ΔG: estimated from ΔH and ΔS (Eq. 7); for ΔH / ΔS: van't Hoff analysis, 15–30 °C
T1 construct: made in house

MtInhA [2] = target: T2, MtInhA (Mycobacterium tuberculosis, UniProt P9WGR1); experiment: MtInhA enzyme inhibition by steady-state kinetics (NADH oxidation at 340 nm); format: biochemical; conditions: for mode of inhibition with respect to NADH / mode of inhibition with respect to DD-CoA: Lineweaver-Burk plot; for IC50: NADH 60 μM, DD-CoA 45 μM, 25 °C, Pipes pH 7.0, read-out: IC50; for Ki: EI complex; for Ki DD-CoA Kii / Ki NADH Kii: ESI complex; for inhibitory activity towards MtInhA: IC50 screening
T2 construct: made in house
Description: In order to assess the relative potency of the compounds, inhibition studies were performed by steady-state kinetic studies using a UV-2550 UV/Visible spectrophotometer (Shimadzu^©), monitoring the NADH oxidation at 340 nm (εβ-NADH = […]), in the forward direction. Experiments were performed at 25 °C, in 100 mM Pipes pH 7.0 and were started with the addition of the 2.2 μM MtInhA to a total reaction volume of 500 μL, and monitoring the change in absorbance for 1 min. […] This is needed as IC50 and classical competitive, non-competitive and uncompetitive inhibition modes follow a rapid equilibrium process. Accordingly, MtInhA (2.2 μM) was pre-incubated with inhibitor (10 μM), aliquots were taken at different times and added to the reaction mixture containing NADH (60 μM) and DD-CoA (45 μM), and initial velocity measurements were plotted as a function of time of pre-incubation[6]. Control experiments were carried out pre-incubating MtInhA (2.2 μM) with DMSO (5%) in the absence of inhibitors, and initial velocity measured as a function of time of pre-incubation[6].
The IC50 value, which defines the concentration of inhibitor required to […], was calculated for each compound. The maximal rate for the enzyme reaction was determined in the absence of inhibitor, in the presence of fixed non-saturating concentration of NADH (60 μM ≅ Km) and DD-CoA (45 μM ≅ Km)[10][11][14]. The reaction velocity was analyzed as the percentage of inhibition as a function of inhibitor concentration and data were fitted to Eq 1.
The most promising compounds were further evaluated to assess the inhibition profile and to determine the inhibition constant (Ki). Initial rates were measured as a function of NADH concentration (10–160 μM) at fixed non-saturating DD-CoA concentration (45 μM) and fixed-varied inhibitor concentrations (0.5–120 μM). The Ki values towards NADH were calculated using the uncompetitive equation (Eq. 2) for compounds Labio_6 and Labio_16, in which [I] is the inhibitor concentration, [S] is the substrate concentration, Km and Vmax are, respectively, the Michaelis-Menten constant and maximum velocity, and Kii is the overall inhibition constant for the ESI complex. The Ki of Labio_03 was determined previously.
For compounds Labio_2, Labio_11, Labio_15 and Labio_17, the Ki values with respect to NADH were calculated using Eq. 3, which describes a non-competitive inhibition, where [I] is the inhibitor concentration, [S] is the substrate concentration, Km and Vmax are, respectively, the Michaelis-Menten constant and maximum velocity, Kii is the overall inhibition constant for the ESI complex and Kis is the overall inhibition constant for the EI complex.
Inhibition studies were also carried out in the presence of fixed non-saturating concentration of NADH (60 μM) and fixed-varied inhibitor concentrations (0.5–120 μM), when DD-CoA was the variable substrate (15–135 μM). For compounds Labio_2, Labio_6, and Labio_16, the inhibition constants for the DD-CoA substrate were determined using Eq. 3 for the non-competitive mode of inhibition. For compounds Labio_11, Labio_15 and Labio_17, the Ki for this substrate were calculated from data fitting to the equation for competitive inhibition (Eq. 4), in which [I] is the inhibitor concentration, [S] is the substrate concentration, Km and Vmax are, respectively, the Michaelis-Menten constant and maximum velocity, and Kis is the overall inhibition constant for the EI complex.

M. tuberculosis H37Rv = experiment: microbe, parasite or virus in culture; format: cell-based; conditions: Mycobacterium tuberculosis, 216 h, 7 days + 48 h resazurin, read-out: MIC H37Rv
[3] = system: M. tuberculosis H37Rv in infected RAW 264.7 macrophages; experiment: Intracellular activity in M. tuberculosis-infected macrophages (CFU); format: cell-based, Mycobacterium tuberculosis; conditions: 5 μM; for decrease in CFU counts compared to early control / decrease in CFU counts compared to untreated late control: 5 days; for Mean log CFU/well ± SEM: 5 days of incubation
MtInhA [4] = target: T2, MtInhA; design: method as in PMID 23889525; conditions: ESI complex; determined previously ref 12; cited from earlier work
[5] = varied DD-CoA 15–135 μM, fixed NADH 60 μM, read-out: Ki DD-CoA Kis
[6] = varied DD-CoA 15–135 μM, fixed NADH 60 μM
[7] = varied NADH 10–160 μM, fixed DD-CoA 45 μM, read-out: Ki NADH Kis
[8] = varied NADH 10–160 μM, fixed DD-CoA 45 μM

T2 sequence (P9WGR1 whole entry, looked up): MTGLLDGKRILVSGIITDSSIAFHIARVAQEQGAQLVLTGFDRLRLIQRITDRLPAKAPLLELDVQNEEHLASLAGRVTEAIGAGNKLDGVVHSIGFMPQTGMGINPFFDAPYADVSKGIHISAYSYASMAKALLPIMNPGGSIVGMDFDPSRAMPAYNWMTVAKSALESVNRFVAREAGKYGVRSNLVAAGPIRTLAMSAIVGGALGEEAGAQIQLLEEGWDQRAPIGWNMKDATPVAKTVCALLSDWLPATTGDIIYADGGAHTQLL
T1 sequence (P9WGR1 whole entry, looked up, one chain of several): as the sequence (P9WGR1 whole entry, looked up) above

SMILES | Kd [1] | ΔG [1] | ΔH [1] | ΔS [1] | mode of inhibition with respect to NADH (MtInhA [2]; fixed DD-CoA 45 μM) | mode of inhibition with respect to DD-CoA (MtInhA [2]; fixed NADH 60 μM) | IC50 (MtInhA [2]) | MIC (M. tuberculosis H37Rv) | inhibitory activity towards MtInhA (MtInhA [2]) | also measured
Cc1nc([C@H](C)NC(=O)c2ccc3oc(Cc4ccccc4F)nc3c2)cs1 [Labio_2] | 2.2 ± 0.2 µM | -7.7 ± 0.7 kcal/mol | -37.7 ± 2.7 kcal/mol | −100.5 ± 9.2 cal.mol^−1.K^−1 | non-competitive | non-competitive | 18 ± 2 µM | > 100 µg/mL |  | Ki (MtInhA [2]; [5]): 0.7 ± 0.4 µM; Ki DD-CoA Kii (MtInhA [2]; [6]): 0.7 ± 0.2 µM; Ki (MtInhA [2]; [7]): 2.3 ± 0.8 µM; Ki NADH Kii (MtInhA [2]; [8]): 2.2 ± 0.6 µM
COc1ccc(-c2n[nH]cc2/C=N\NC(=O)c2cc(C)nc3c(C)cccc23)cc1 [Labio_11] | 17.9 ± 1.1 µM | -6.5 ± 0.9 kcal/mol | -18.7 ± 1.7 kcal/mol | −40.9 ± 5.9 cal.mol^−1.K^−1 | non-competitive | competitive | 87 ± 3 µM | > 100 µg/mL |  | Ki (MtInhA [2]; [5]): 27 ± 3 µM; Ki (MtInhA [2]; [7]): 44 ± 14 µM; Ki NADH Kii (MtInhA [2]; [8]): 41 ± 6 µM
Cc1ccc(N2C[C@@H](c3nc(-c4ccc(OC(C)C)cc4)no3)CC2=O)c(C)c1 [Labio_13] |  |  |  |  |  |  |  | > 10 µg/mL | no inhibitory activity | 
CCN(CC)Cc1cc(-c2ccnc3cc(Cl)ccc23)ccc1O [Labio_15] | 29.4 ± 2.1 µM | -6.2 ± 1.5 kcal/mol | -9.6 ± 0.8 kcal/mol | −11.5 ± 2.8 cal.mol^−1.K^−1 | non-competitive | competitive | 83 ± 2 µM | 25 µg/mL |  | Ki (MtInhA [2]; [5]): 74 ± 8 µM; Ki (MtInhA [2]; [7]): 110 ± 26 µM; Ki NADH Kii (MtInhA [2]; [8]): 110 ± 11 µM
CO[C@H]1/C=C/O[C@@]2(C)Oc3c(C)c(O)c4c(O)c(c(/C=N/N5CCN(C)CC5)c(O)c4c3C2=O)NC(=O)/C(C)=C\C=C\[C@H](C)[C@H](O)[C@@H](C)[C@@H](O)[C@@H](C)[C@H](OC(C)=O)[C@@H]1C [Rifampin] |  |  |  |  |  |  |  |  |  | decrease in CFU counts compared to early control [3]: 1.7 log10; decrease in CFU counts compared to untreated late control [3]: 2.3 log10; Mean log CFU/well ± SEM [3]: 2.4 ± 0.1***^+++ log CFU/well
COc1cccc(-c2cccc(NC(=O)C3CCN(CC=C(C)C)CC3)c2)c1 [Labio_20] |  |  |  |  |  |  |  | 23.8 µg/mL | no inhibitory activity | 
Cc1cccc(NC(=O)/C(C#N)=C/c2ccc(OCc3ccccc3)cc2)n1 [Labio_7] |  |  |  |  |  |  |  | > 10 µg/mL | no inhibitory activity | 
COc1ccc(CCC(=O)Nc2nn3cc(-c4ccccc4)nc3s2)cc1 [Labio_6] | 3.1 ± 0.4 µM | -7.6 ± 0.7 kcal/mol | -44.7 ± 3.6 kcal/mol | −124.2 ± 12.3 cal.mol^−1.K^−1 | uncompetitive | non-competitive | 9.8 ± 0.9 µM | > 10 µg/mL |  | Ki (MtInhA [2]; [5]): 0.7 ± 0.2 µM; Ki DD-CoA Kii (MtInhA [2]; [6]): 0.7 ± 0.1 µM; Ki NADH Kii (MtInhA [2]; [8]): 1.8 ± 0.2 µM
Cc1ccc(N2C[C@@H](c3nc(-c4ccc(OC(C)C)cc4)no3)CC2=O)cc1C [Labio_8] |  |  |  |  |  |  |  | > 10 µg/mL | no inhibitory activity | 
CCCOc1ccc(-c2nnc(NC(=O)Nc3ccccc3C)s2)cc1 [Labio_3] | 4.4 ± 0.4 µM | -7.4 ± 0.7 kcal/mol | -27.8 ± 1.8 kcal/mol | −68.5 ± 6.3 cal.mol^−1.K^−1 | uncompetitive | uncompetitive | 19 ± 2 µM | 11.2 µg/mL |  | Ki DD-CoA Kii (MtInhA [4]): 20 ± 2 µM; Ki NADH Kii (MtInhA [4]): 24 ± 3 µM
O=C(CNC(=O)c1ccc2c(c1)OCO2)Nc1ccc(Nc2ccccc2)cc1 [Labio_12] |  |  |  |  |  |  |  | > 100 µg/mL | no inhibitory activity | 
O=C(Cc1csc(-c2ccccn2)n1)Nc1ccccc1Oc1ccccc1 [Labio_1] |  |  |  |  |  |  |  | > 10 µg/mL | no inhibitory activity | 
NNC(=O)c1ccncc1 [INH, Isoniazid] |  |  |  |  |  |  |  | 0.31 µg/mL |  | decrease in CFU counts compared to early control [3]: 1.7 log10; decrease in CFU counts compared to untreated late control [3]: 2.3 log10; Mean log CFU/well ± SEM [3]: 2.4 ± 0.1***^+++ log CFU/well
Cc1cc(NC(=O)Cc2csc(-c3ccsc3)n2)ccc1Br [Labio_9] |  |  |  |  |  |  |  | > 10 µg/mL | no inhibitory activity | 
